Laboratory results taken from patent publication US8247211B2, “Glycopeptide antibiotics” (American Cyanamid Company, priority 2001, dated 2012).

Legend:
Test in all cases: In vitro antibacterial evaluation: minimum inhibitory concentration (MIC), broth dilution method
Type in all cases: cell-based
[1] = system: Escherichia coli
How it was run: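 NCCLS M7-A2 broth dilution with Mueller-Hinton II, testing 64-0.06 μg/mL antibiotic against 5×10^5 CFU/mL inocula. Test strains include recent methicillin-, penicillin- or vancomycin-resistant clinical isolates. MIC is the lowest concentration preventing growth.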

[2] = system: Streptococcus sp.
How it was run: (§1)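 Susceptibility determined by NCCLS-recommended broth dilution (M7-A2), Muller-Hinton II […]. Concentration span 64-0.06 μg/mL, inoculum 5×10^5 CFU/mL. Isolates include strains resistant to methicillin, penicillin and/or vancomycin.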

[3] = system: Enterococcus sp.
How it was run: as §1

[4] = system: Staphylococcus sp.; conditions: broth dilution, 18 hours at 35° C.
How it was run: as §1

[5] = broth dilution, inoculum 5×10^5 CFU/mL, 18 hours at 35° C.

CC(c1ccccc1)C1NC(=O)CNC(=O)C(CO)NC(=O)C(C(O)C2CNC(=N)N2C2OC(CO)C(O)C(O)C2O)NC(=O)C(C(O)C2CNC(=N)N2)NC(=O)C(Cc2ccc(OC3OC(CO)C(OC4OC(CO)C(O)C5OC(c6ccc(-c7ccsc7)cc6)OC45)C(O)C3O)cc2)NC1=O (stereo not drawn) [Example 164a, Cyclo[glycyl-β-methylphenylalanyl-O-[4-O-[2,3-O-[4-(3-thienyl)benzylidene]hexopyranosyl]-hexopyranosyl]tyrosyl-3-(2-iminoimidazolidin-4-yl)seryl-3-(3-hexopyranosyl-2-iminoimidazolidin-4-yl)serylseryl]]
16 µg/mL: MIC Enterococcus faecalis (ATCC 29212) [3, 5] | MIC Enterococcus faecalis (GC 2242) [3, 5] | MIC Enterococcus faecalis (GC 2691) [3, 5] | MIC Enterococcus faecalis (GC 3059) [3, 5] | MIC Enterococcus faecalis (GC 4552) [3, 5] | MIC Enterococcus faecalis (GC 4553) [3, 5] | MIC Enterococcus faecalis (GC 4554) [3, 5] | MIC Enterococcus faecalis (GC 6189) [3, 5] | MIC Enterococcus faecium (GC 4556) [3, 5] | MIC Enterococcus faecalis (ATCC 29212) ([3]; strain ATCC 29212) | MIC Enterococcus faecalis (GC 2242) ([3]; strain GC 2242) | MIC Enterococcus faecalis (GC 2691) ([3]; strain GC 2691) | MIC Enterococcus faecalis (GC 3059) ([3]; strain GC 3059) | MIC Enterococcus faecalis (GC 4552) ([3]; strain GC 4552) | MIC Enterococcus faecalis (GC 4553) ([3]; strain GC 4553) | MIC Enterococcus faecalis (GC 4554) ([3]; strain GC 4554) | MIC Enterococcus faecium (GC 4556) ([3]; strain GC 4556) | MIC Enterococcus faecalis (GC 6189) ([3]; strain GC 6189) | MIC Staphylococcus aureus (GC 4542) ([4]; 5×10^5 CFU/mL) | MIC Staphylococcus aureus (GC 4542) ([4]; strain GC 4542)
0.25 µg/mL: MIC Streptococcus pneumoniae (GC 1894) [2, 5] | MIC Streptococcus pneumoniae (GC 1894) ([2]; strain GC 1894)
32 µg/mL: MIC Escherichia coli (ATCC 25922) ([1]; strain ATCC 25922) | MIC Escherichia coli (GC 4559) ([1]; strain GC 4559)
8 µg/mL: MIC Escherichi coli (GC 4560) ([1]; strain GC 4560) | MIC Enterococcus avium (GC 4558) [3, 5] | MIC Enterococcus faecium (GC 2243) [3, 5] | MIC Enterococcus faecium (GC 2243) ([3]; strain GC 2243) | MIC Enterococcus avium (GC 4558) ([3]; strain GC 4558) | MIC Coagulase Negative Staphylococcus (GC 4547) ([4]; 5×10^5 CFU/mL) | MIC Coagulase Negative Staphylococcus (GC 4551) ([4]; 5×10^5 CFU/mL) | MIC Staphylococcus aureus (ATCC 29213) ([4]; 5×10^5 CFU/mL) | MIC Staphylococcus aureus (GC 1131) ([4]; 5×10^5 CFU/mL) | MIC Staphylococcus aureus (GC 3051) ([4]; 5×10^5 CFU/mL) | MIC Staphylococcus aureus (GC 3053) ([4]; 5×10^5 CFU/mL) | MIC Staphylococcus aureus (GC 4541) ([4]; 5×10^5 CFU/mL) | MIC Staphylococcus aureus (GC 4544) ([4]; 5×10^5 CFU/mL) | MIC Staphylococcus aureus (GC 4545) ([4]; 5×10^5 CFU/mL) | MIC Staphylococcus aureus-SMITH (GC 4543) ([4]; 5×10^5 CFU/mL) | MIC Staphylococcus aureus (ATCC 29213) ([4]; strain ATCC 29213) | MIC Staphylococcus aureus (GC 1131) ([4]; strain GC 1131) | MIC Staphylococcus aureus (GC 3051) ([4]; strain GC 3051) | MIC Staphylococcus aureus (GC 3053) ([4]; strain GC 3053) | MIC Staphylococcus aureus (GC 4541) ([4]; strain GC 4541) | MIC Staphylococcus aureus-SMITH (GC 4543) ([4]; strain GC 4543) | MIC Staphylococcus aureus (GC 4544) ([4]; strain GC 4544) | MIC Staphylococcus aureus (GC 4545) ([4]; strain GC 4545) | MIC Coagulase Negative Staphylococcus (GC 4547) ([4]; strain GC 4547) | MIC Coagulase Negative Staphylococcus (GC 4551) ([4]; strain GC 4551)
1 µg/mL: MIC Streptococcus agalactiae (GC 4564) [2, 5] | MIC Streptococcus pneumoniae (ATCC 6301) [2, 5] | MIC Streptococcus pneumoniae (GC 4565) [2, 5] | MIC Streptococcus pneumoniae (ATCC 6301) ([2]; strain ATCC 6301) | MIC Streptococcus agalactiae (GC 4564) ([2]; strain GC 4564) | MIC Streptococcus pneumoniae (GC 4565) ([2]; strain GC 4565)
4 µg/mL: MIC Enterococcus faecium (GC 4557) [3, 5] | MIC Enterococcus faecium (GC 4557) ([3]; strain GC 4557) | MIC Coagulase Negative Staphylococcus (GC 4548) ([4]; 5×10^5 CFU/mL) | MIC Coagulase Negative Staphylococcus (GC 4549) ([4]; 5×10^5 CFU/mL) | MIC Coagulase Negative Staphylococcus (GC 6257) ([4]; 5×10^5 CFU/mL) | MIC Staphylococcus haemolyticus (GC 4546) ([4]; 5×10^5 CFU/mL) | MIC Staphylococcus haemolyticus (GC 4546) ([4]; strain GC 4546) | MIC Coagulase Negative Staphylococcus (GC 4548) ([4]; strain GC 4548) | MIC Coagulase Negative Staphylococcus (GC 4549) ([4]; strain GC 4549) | MIC Coagulase Negative Staphylococcus (GC 6257) ([4]; strain GC 6257)
0.5 µg/mL: MIC Streptococcus pyogenes (GC 4563) [2, 5] | MIC Streptococcus pyogenes (GC 4563) ([2]; strain GC 4563)
